For data set [1], the system named is T1, C. trachomatis L2/434/Bu expressing GFP (CTL2-GFP).
T1 construct: L2/434/Bu GFP intracellular growth in HeLa cells
Description: microbe, parasite or virus in culture. More on the design: C. trachomatis total inclusion area by high-content imaging, normalised to DMSO. The following applies: Chlamydia trachomatis, HeLa, 28.5 h; total inclusion area; read-out: % of control remaining. The essentials:
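Screening measures GFP fluorescence from the reporter strain and resorufin fluorescence for host viability, with Hoechst-based imaging of fixed cells adding inclusion area, inclusion number and nuclei count per well.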

A short description of data set [2]: in vitro. Also noted: Viability of infected HeLa host cells, resazurin conversion, bulk resorufin fluorescence relative to DMSO. The following applies: human, hela cells; bulk resorufin, mean of 2.
The test system of data set [3] is T2, CTL2-GFP (C. trachomatis L2/434/Bu, GFP-expressing).
T2 construct: L2/434/Bu, GFP-expressing
Description: microbe, parasite or virus in culture. Also noted: Intracellular C. trachomatis growth in HeLa cells, bulk GFP fluorescence relative to DMSO. Particulars: Chlamydia trachomatis, HeLa, 28.5 h; bulk GFP, mean of 2; read-out: % of control remaining. How it is done:
MICs were calculated as described above.

As for `CC(C)Nc1nc2cc(Cl)c(Cl)cc2nc1Sc1cccc(O)c1` [CBK093732], in data set [1], the activity at 1 µM amounted to 129%, the activity at 5 µM amounted to 50.2% and the activity at 10 µM was 35.1%. Also, in data set [2], the viability at 28.5 h, 1 µM turned out to be 95.8%; the viability at 28.5 h, 5 µM came out at 88%; the viability at 28.5 h, 10 µM was 100%. Further, in data set [3], the activity at 1 µM was found to be 124%, the activity at 5 µM came to 94.8% and the activity at 10 µM worked out at 55.6%.
Regarding `O=C(O)/C(=N\c1cccc2ccccc12)c1ccccc1` [CBK262224], in data set [1], the activity at 1 µM was 69.5%, the activity at 5 µM came out at 62.2% and the activity at 10 µM was determined as 32.2%. In addition, in data set [2], the viability at 28.5 h, 1 µM came to 87.4%; the viability at 28.5 h, 5 µM came to 88.7%; the viability at 28.5 h, 10 µM is 96%. Moreover, in data set [3], the activity at 1 µM was determined as 80.4%, the activity at 5 µM came out at 66.5% and the activity at 10 µM was determined as 49.9%.
As to `O=C(NCCc1c[nH]c2ccc(Cl)cc12)c1ccc(Cl)cc1Cl` [CBK159750], in data set [1], the activity at 1 µM was 91.9%, the activity at 5 µM came out at 68.5% and the activity at 10 µM was determined as 6.32%. Also, in data set [2], the viability at 28.5 h, 1 µM worked out at 95.1%; the viability at 28.5 h, 5 µM is 93.9%; the viability at 28.5 h, 10 µM stood at 98.4%. Moreover, in data set [3], the activity at 1 µM turned out to be 88%, the activity at 5 µM came to 40.4% and the activity at 10 µM is 8.46%.
Turning to `COCCNc1nc2c(c(N3CCCCCC3)n1)CCNCC2` [CBK306724], in data set [1], the activity at 1 µM is 79.4%, the activity at 5 µM stood at 0.64% and the activity at 10 µM amounted to 0.424%. Besides, in data set [2], the viability at 28.5 h, 1 µM was 98%; the viability at 28.5 h, 5 µM was 97.9%; the viability at 28.5 h, 10 µM worked out at 92.9%. Further, in data set [3], the activity at 1 µM came out at 76%, the activity at 5 µM stood at 7.81% and the activity at 10 µM stood at 4.81%.
Turning to `CN1CCN(c2ccc3ccn(S(=O)(=O)c4ccc([N+](=O)[O-])cc4)c3n2)CC1` [CBK070757C], in data set [1], the activity at 1 µM amounted to 106%, the activity at 5 µM came to 64% and the activity at 10 µM is 24.6%. Also, in data set [2], the viability at 28.5 h, 1 µM is 89.6%; the viability at 28.5 h, 5 µM worked out at 87.7%; the viability at 28.5 h, 10 µM worked out at 86%. In data set [3], the activity at 1 µM was determined as 140%, the activity at 5 µM is 89.2% and the activity at 10 µM is 46.7%.
Consider `CCOc1ccsc1C(=O)Nc1cc(C)ccn1` [CBK004029], for which, in data set [1], the activity at 1 µM was 116%, the activity at 5 µM came out at 64.9% and the activity at 10 µM came out at 19.7%. In data set [2], the viability at 28.5 h, 1 µM stood at 92.3%; the viability at 28.5 h, 5 µM worked out at 92.3%; the viability at 28.5 h, 10 µM worked out at 71.7%. Further, in data set [3], the activity at 1 µM came out at 122%, the activity at 5 µM is 61.7% and the activity at 10 µM is 32.4%.
Consider `Cc1cc(C)nc(NC(=N)NCCc2c[nH]c3ccccc23)n1` [CBK266321], for which, in data set [1], the activity at 1 µM is 75.6%, the activity at 5 µM was 44.4% and the activity at 10 µM was 14.7%. In data set [2], the viability at 28.5 h, 1 µM came to 109%; the viability at 28.5 h, 5 µM came out at 98.8%; the viability at 28.5 h, 10 µM is 81.2%. Also, in data set [3], the activity at 1 µM came out at 89.2%, the activity at 5 µM turned out to be 67.2% and the activity at 10 µM came out at 37.1%.
Take `CC(=O)Nc1ccc(S(=O)(=O)Nc2ccc(C(=O)Nc3ccc(F)cc3)cc2)cc1` [CBK050401]: in data set [1], the activity at 1 µM was 114%, the activity at 5 µM stood at 48.5% and the activity at 10 µM stood at 30%. In data set [2], the viability at 28.5 h, 1 µM turned out to be 93.4%; the viability at 28.5 h, 5 µM stood at 87.7%; the viability at 28.5 h, 10 µM worked out at 91.8%. Also, in data set [3], the activity at 1 µM came out at 101%, the activity at 5 µM turned out to be 31.9% and the activity at 10 µM was found to be 14.2%.
On to `COc1ccc(CC(=O)N2CCCC(c3nc(C)c4c(n3)N(CC3CC3)CCC4)C2)cc1` (stereo not drawn) [CBK286228], for which, in data set [1], the activity at 1 µM stood at 88.7%, the activity at 5 µM is 46.6% and the activity at 10 µM worked out at 3.42%. In data set [2], the viability at 28.5 h, 1 µM amounted to 102%; the viability at 28.5 h, 5 µM was 97.8%; the viability at 28.5 h, 10 µM came out at 97%. Further, in data set [3], the activity at 1 µM was 130%, the activity at 5 µM was determined as 39.3% and the activity at 10 µM amounted to 5.11%.
As for `C[C@H](NC(=O)Cc1ccc(-c2ccccc2)cc1)c1nc2ccccc2[nH]1` [CBK296998], in data set [1], the activity at 1 µM was found to be 110%, the activity at 5 µM worked out at 35.8% and the activity at 10 µM worked out at 30.7%. In data set [2], the viability at 28.5 h, 1 µM came to 89.7%; the viability at 28.5 h, 5 µM was 97.4%; the viability at 28.5 h, 10 µM is 100%. For the same molecule, in data set [3], the activity at 1 µM worked out at 153%, the activity at 5 µM came out at 142% and the activity at 10 µM is 185%.
Take `Cc1noc(NS(=O)(=O)c2ccc(NC(=O)COc3cccc(Br)c3)cc2)c1C` [CBK264086]: in data set [1], the activity at 1 µM was 93.1%, the activity at 5 µM was 45.5% and the activity at 10 µM was found to be 20.6%. Besides, in data set [2], the viability at 28.5 h, 1 µM was determined as 89.3%; the viability at 28.5 h, 5 µM turned out to be 91.3%; the viability at 28.5 h, 10 µM is 94.3%. Moreover, in data set [3], the activity at 1 µM came out at 96.8%, the activity at 5 µM came to 38.7% and the activity at 10 µM was 17.8%.
Regarding `O=C(N/N=C\c1ccc([N+](=O)[O-])o1)c1nc(-c2ccccc2)cc(-c2ccccc2)n1` [CBK261958], in data set [1], the activity at 1 µM was 4.65%, the activity at 5 µM stood at 0.0567% and the activity at 10 µM came out at 0%. Besides, in data set [2], the viability at 28.5 h, 1 µM stood at 90%; the viability at 28.5 h, 5 µM was 91.8%; the viability at 28.5 h, 10 µM was found to be 87.8%. Also, in data set [3], the activity at 1 µM was 6.03%, the activity at 5 µM worked out at 1.53% and the activity at 10 µM was determined as 7.08%.
Consider `CC(Oc1cccc2ccccc12)C(=S)N(C)c1ccccc1` (stereo not drawn) [CBK016158], for which, in data set [1], the activity at 1 µM stood at 105%, the activity at 5 µM was determined as 98.3% and the activity at 10 µM turned out to be 84.8%. In addition, in data set [2], the viability at 28.5 h, 1 µM was 113%; the viability at 28.5 h, 5 µM came out at 117%; the viability at 28.5 h, 10 µM was 107%. Moreover, in data set [3], the activity at 1 µM came to 98.8%, the activity at 5 µM was 81.4% and the activity at 10 µM turned out to be 67.6%.
As to `CCCN(CCC)CCc1cccc2c1CCN2C(=O)c1cc2ccccc2s1` [CBK017871C], in data set [1], the activity at 1 µM stood at 58%, the activity at 5 µM was determined as 26.8% and the activity at 10 µM was 2.13%. Besides, in data set [2], the viability at 28.5 h, 1 µM was determined as 96.8%; the viability at 28.5 h, 5 µM was found to be 96.9%; the viability at 28.5 h, 10 µM stood at 97.3%. Further, in data set [3], the activity at 1 µM turned out to be 42.3%, the activity at 5 µM stood at 18.2% and the activity at 10 µM was found to be 9.45%.
Regarding `N#Cc1c(Nc2cccc(C(F)(F)F)c2)sc(C(=O)c2ccc3c(c2)OCO3)c1N` [CBK074399], in data set [1], the activity at 1 µM came out at 2.52%, the activity at 5 µM was 2.64% and the activity at 10 µM came out at 6.62%. In data set [2], the viability at 28.5 h, 1 µM is 87.7%; the viability at 28.5 h, 5 µM is 85.9%; the viability at 28.5 h, 10 µM was 81.1%. In data set [3], the activity at 1 µM was 10.1%, the activity at 5 µM stood at 11.2% and the activity at 10 µM was found to be 17.7%.
Take `CC(C)(CN)CN(Cc1c[nH]c(-c2ccccc2)n1)C(=O)Nc1ccc(C(C)(C)C)cc1` [CBK002462C]: in data set [1], the activity at 1 µM is 106%, the activity at 5 µM was 55.9% and the activity at 10 µM turned out to be 29%. Besides, in data set [2], the viability at 28.5 h, 1 µM was 91.6%; the viability at 28.5 h, 5 µM is 89.2%; the viability at 28.5 h, 10 µM was found to be 72.5%. In data set [3], the activity at 1 µM was determined as 139%, the activity at 5 µM was determined as 101% and the activity at 10 µM was determined as 29.5%.
Regarding `CCC1C(c2ccc(C)cc2)=CCC(C(=O)NCCCN(C)C)C1C` (stereo not drawn) [CBK016514], in data set [1], the activity at 1 µM came out at 109%, the activity at 5 µM is 44.4% and the activity at 10 µM was 8.47%. In data set [2], the viability at 28.5 h, 1 µM turned out to be 104%; the viability at 28.5 h, 5 µM was 88.9%; the viability at 28.5 h, 10 µM turned out to be 100%. Further, in data set [3], the activity at 1 µM was found to be 112%, the activity at 5 µM came out at 33.9% and the activity at 10 µM was determined as 9.47%.
As to `CC(Nc1cccc2ccccc12)C(=O)N/N=C/c1c(O)ccc2ccccc12` (stereo not drawn) [CBK262678], in data set [1], the activity at 1 µM stood at 100%, the activity at 5 µM amounted to 47.4% and the activity at 10 µM was 21%. In data set [2], the viability at 28.5 h, 1 µM came to 90.9%; the viability at 28.5 h, 5 µM was 83%; the viability at 28.5 h, 10 µM worked out at 74.2%. In addition, in data set [3], the activity at 1 µM came out at 132%, the activity at 5 µM was determined as 74.4% and the activity at 10 µM is 72.2%.
As for `Cc1ccc(Nc2ncc(C(=O)NCCCN3CCN(c4cccc(Cl)c4)CC3)c3ccccc23)cc1Cl` [CBK291251], in data set [1], the activity at 1 µM amounted to 93.1%, the activity at 5 µM turned out to be 97.7% and the activity at 10 µM amounted to 75.8%. In data set [2], the viability at 28.5 h, 1 µM was 106%; the viability at 28.5 h, 5 µM amounted to 113%; the viability at 28.5 h, 10 µM was determined as 99.2%. In data set [3], the activity at 1 µM came out at 89.3%, the activity at 5 µM was determined as 83.3% and the activity at 10 µM is 70.2%.

Broadly, the viability is a read-out of living cells in per cent, often relative to untreated cells.

These data come from publication PMC12040169 (PLOS Biology, 2025).
